Reference: ChEMBL document CHEMBL1201862, “PubChem BioAssay data set” (2004)
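Results reflect a 48-hour exposure of cells in 96-well plates to compound at five concentrations. GI50 is the concentration that inhibits growth by half.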 The source made the active and inactive calls. No stated cut-off is given here; in the data, active = GI50 up to about 1.1 µM and inactive = higher.

Tests used:
Experiment in all cases: inhibition of tumour cell growth, NCI panel, 48 h
HOP-92 = tested on: HOP-92
Malme-3M = tested on: Malme-3M
OVCAR-5 = tested on: OVCAR-5
NCI-H460 = tested on: NCI-H460
SNB-19 = tested on: SNB-19
SF-295 = tested on: SF-295
SNB-78 = tested on: SNB-78
HOP-62 = tested on: HOP-62
XF498 = tested on: XF498
NCI-H23 = tested on: NCI-H23
SF-268 = tested on: SF-268
SK-MEL-2 = tested on: SK-MEL-2
TK-10 = tested on: TK-10
HOP-18 = tested on: HOP-18
HCT-15 = tested on: HCT-15
MOLT-4 = tested on: MOLT-4
UACC-62 = tested on: UACC-62
RXF 393 = tested on: RXF 393
RPMI-8226 = tested on: RPMI-8226
M19-MEL = tested on: M19-MEL
COLO 205 = tested on: COLO 205
HL-60 = tested on: HL-60
OVCAR-4 = tested on: OVCAR-4
A549 = tested on: A549
U-251 = tested on: U-251
ACHN = tested on: ACHN
NCI-H226 = tested on: NCI-H226
OVCAR-8 = tested on: OVCAR-8
EKVX = tested on: EKVX
SNB-75 = tested on: SNB-75
CCRF-CEM = tested on: CCRF-CEM
KM12 = tested on: KM12
K562 = tested on: K562
786-0 = tested on: 786-0
NCI-H522 = tested on: NCI-H522
CAKI-1 = tested on: CAKI-1
M14 = tested on: M14
SN12C = tested on: SN12C
SK-MEL-28 = tested on: SK-MEL-28
OVCAR-3 = tested on: OVCAR-3
DLD-1 = tested on: DLD-1
SR = tested on: SR
SK-MEL-5 = tested on: SK-MEL-5
LOX IMVI = tested on: LOX IMVI
LXFL 529 = tested on: LXFL 529
HCT-116 = tested on: HCT-116
HT-29 = tested on: HT-29
SW-620 = tested on: SW-620
SF-539 = tested on: SF-539
SK-OV-3 = tested on: SK-OV-3
IGROV-1 = tested on: IGROV-1

## Clc1ccccc1C1SCc2nc3ccccc3n21 (stereo unspecified)
HOP-92
  GI50: 8.79 µM (inactive)
Malme-3M
  GI50: 17.7 µM (inactive)
OVCAR-5
  GI50: 17.6 µM (inactive)
NCI-H460
  GI50: 30.1 µM (inactive)
SNB-19
  GI50: 12.4 µM (inactive)
SF-295
  GI50: 28.8 µM (inactive)
SNB-78
  GI50: 17.1 µM (inactive)
HOP-62
  GI50: 19.3 µM (inactive)
XF498
  GI50: 30.3 µM (inactive)
NCI-H23
  GI50: 25.4 µM (inactive)
SF-268
  GI50: 37.1 µM (inactive)
SK-MEL-2
  GI50: 22 µM (inactive)
TK-10
  GI50: 23 µM (inactive)
HOP-18
  GI50: < 0.01 µM (active)
HCT-15
  GI50: 22.6 µM
MOLT-4
  GI50: 23.6 µM (inactive)
UACC-62
  GI50: > 10 µM (inactive)
RXF 393
  GI50: 24.5 µM (inactive)
RPMI-8226
  GI50: 20 µM (inactive)
M19-MEL
  GI50: 33 µM (inactive)
COLO 205
  GI50: 49.7 µM (inactive)
HL-60
  GI50: 13 µM (inactive)
OVCAR-4
  GI50: 18 µM (inactive)
A549
  GI50: 32.6 µM (inactive)
U-251
  GI50: 22.8 µM (inactive)
ACHN
  GI50: 22.1 µM (inactive)
NCI-H226
  GI50: 26.2 µM (inactive)
OVCAR-8
  GI50: 24.2 µM (inactive)
EKVX
  GI50: 22.6 µM (inactive)
SNB-75
  GI50: 3.97 µM (inactive)
CCRF-CEM
  GI50: 30.3 µM (inactive)
KM12
  GI50: 30.8 µM (inactive)
K562
  GI50: 21.6 µM (inactive)
786-0
  GI50: 25.7 µM (inactive)
NCI-H522
  GI50: 9.55 µM (inactive)
CAKI-1
  GI50: 25.4 µM (inactive)
M14
  GI50: 19.1 µM (inactive)
SN12C
  GI50: 18 µM (inactive)
SK-MEL-28
  GI50: 28.5 µM (inactive)
OVCAR-3
  GI50: 14.1 µM (inactive)
DLD-1
  GI50: 33.2 µM (inactive)
SR
  GI50: 19.4 µM (inactive)
SK-MEL-5
  GI50: 17.9 µM (inactive)
LOX IMVI
  GI50: 26.4 µM (inactive)
LXFL 529
  GI50: 26.4 µM (inactive)
HCT-116
  GI50: 18.7 µM (inactive)
HT-29
  GI50: 29.4 µM (inactive)
SW-620
  GI50: 43.5 µM (inactive)
SF-539
  GI50: 33.5 µM (inactive)
SK-OV-3
  GI50: 27.6 µM (inactive)
IGROV-1
  GI50: 33.6 µM (inactive)
